Several values for one entry are separate records, joined by “and”; a condition that tells them apart may be missing. Identical values can stand only once. Like-named read-outs stand apart in the source and are kept apart here.
What was measured:
[1] = system: deep block induced by rocuronium; assay type: in vivo, human
Source text: A simple method of monitoring neuromuscular function is the train-of-four (TOF) technique using an acceleromyograph (TOF Watch®). Four electrical stimuli each 0.5 seconds apart (and for instance applied at 12-15 seconds intervals) are applied along the course of the ulnar nerve in the arm. Stimulation of the ulnar nerve causes contraction of the adductor pollicis muscle and movement of the thumb. Response can be noted visually or, more accurately, by placing a finger lightly on the surface of the hand over the muscle to feel the contraction. A baseline response check is done to ensure that there are four muscle twitches in response to the four stimuli. Normal baseline and full recovery is indicated by four twitches of equal strenght. As the number of acetylcholine receptors occupied by NMBAs increases, the number of twitches decreases, no twitches indicating total paralysis.
(§1) • T1: first twitch: amplitude of the first response to TOF stimulation, expressed as percentage of control T1 (%). • T4/T1 ratio: the ratio of T4 over T1 (within one TOF stimulus) expressed as decimals.
10 Volunteers, which were enrolled in a phase 1 trial with the objective to investigate the safety, pharmacokinetics and efficacy of Org 25969, received general anesthesia using i.v. administration of remifentanil followed by propofol (Target controlled Infusion—Diprifusor®) for induction and maintenance. After induction of anesthesia and set-up of the TOF-Watch®SX subjects received a i.v. bolus dose of 0.6 mg·kg^−1 rocuronium bromide (Esmeron®) given by hand over 5 seconds. Between the administration of rocuronium and the administration of Org 25969, a laryngeal mask was applied or tracheal intubation was performed to ventilate the subjects. At 3 minutes after rocuronium bromide administration (i.e. deep block) either placebo (commercially physiological salt solution, 0.9% sodium chloride) or Org 25969 (25 mg/ml) were given as a bolus dose into a fast running infusion in the forearm. Six dose levels of Org 25969 were given to these 10 volunteers. Neuromuscular block was measured using the TOF-Watch-SX® acceleromyograph for at least 90 minutes after administration of Org 25969 or placebo.

[2] = system: M. gastrocnemius contractions; assay type: in vivo, guinea pig; conditions: for 1× ED90 dose: rocuronium i.v. bolus, established in each animal
Protocol: Male healthy mature guinea pigs were anesthetised with 30 mg·kg^−1 pentobarbitone and 900 mg·kg^−1 urethane i.p. The guinea pigs were artificially ventilated with room air (4.5-5.5 ml; 50-60 strokes/min). Catheters were placed in both jugular veins and a third catheter was placed in the carotid artery for continuous monitoring of arterial blood pressure and the taking of blood samples for blood gas analysis.
Heart rate was derived from the blood pressure signal.
Body temperature was maintained at 37-38° C. using an electrical heating pad.
The gastrocnemius muscle was dissected free from surrounding muscles and set up for recording twitch tension using a force transducer. A resting tension of 250-300 mN was applied to the muscle. A stimulation electrode was placed around the sciatic nerve, which was crushed centrally to the electrode to prevent reflex responses. The gastrocnemius muscle was stimulated indirectly via the sciatic nerve with rectangular pulses of 0.5 ms duration at 10 s (0.1 Hz) intervals at a supra maximal voltage using a Grass S88 Stimulator.
Animals were allowed to stabilise for […] before the start of the experiment. Firstly, the 1×ED90 blocking dose of rocuronium was established in each animal followed by complete spontaneous recovery of muscle contractions. After at least 30 minutes, all animals received a 10×ED90 blocking dose of rocuronium by intravenous bolus injection. One minute after bolus injection of rocuronium, the animals received either 2300 nmol·kg^−1 Org 25969 in saline or an equivalent volume of saline. Time to 25%, 50%, 75% and 90% recovery of twitch height was measured from the moment of injection of Org 25969 or saline, respectively.
Rocuronium bromide was dissolved in a pH 4.0 citric acid/phosphate/mannitol buffer. Org 25969 was dissolved in saline.

[3] = system: M. adductor pollicis contractions; assay: Rocuronium-induced block of M. adductor pollicis contractions (TOF stimulation) and effect of Org 25969 in anaesthetised Rhesus monkeys; assay type: in vivo, Rhesus monkey
Protocol: as §1
Female Rhesus monkeys were starved overnight and sedated with 10 mg·kg^−1 ketamine i.m., followed by i.v. injection of 25 mg·kg^−1 pentobarbitone sodium and subsequent infusion of 5-10 mg·kg^−1hr^−1. The animals were intubated and ventilated with a mixture of oxygen and nitrous oxide (2:3), using a ventilator. The expired CO2 level was measured using a capnograph. The tidal volume was adjusted to obtain a CO2 level of approximately 4.5%. Oxygen saturation was measured via a probe on the earlobe using a pulse oxymeter. Blood pressure was measured non-invasively with a cuff placed on the tail. The ECG was recorded and heart rate was measured. Rectal temperature was measured and body temperature was kept at 37-38° C. using a heating blanket. The right hand and right arm of the animal were fixed to a frame using surgical tape. The thumb was connected to a force transducer. A pre-load of 200-500 mN was applied. Two needle electrode were placed near the N. ulnaris and the nerve was stimulated with train-of-four pulses (pulse duration: 2 ms, train-frequency: 0.07 Hz). At the end of the experiment, the animals were allowed to recover from anesthesia. Appropriate recovery care was given to all animals. Two groups of monkeys were used to assess the reversal effects of Org 25969 against the neuromuscular blocking agents rocuronium (Esmeron®/Zemuron®) and vecuronium (Norcuron®). In the first group, animals initially received an intravenous bolus injection of a 1×ED90 dose of rocuronium bromide to induce neuromuscular block, followed by spontaneous recovery of the twitches. After complete recovery of the twitches, each group received a second and larger 5×ED90 dose of rocuronium followed by spontaneous recovery in one subgroup, whereas the other subgroup received an intravenous bolus dose of 1150 nmol·kg^−1 Org 25969 as soon as all twitches had disappeared. In the vecuronium groups of animals, the same protocol was used, but rocuronium was replaced by vecuronium. Rocuronium bromide and vecuronium bromide were dissolved in a citric acid/phosphate/mannitol buffer (pH 4.0). Org 25969 was dissolved in saline.

[4] = 10× ED90 rocuronium, 2300 nmol · kg^−1 Org 25969 i.v. one minute later (group 2), time from injection of Org 25969
[5] = 5× ED90 rocuronium + 1150 nmol · kg^−1 Org 25969 i.v.
[6] = 5× ED90 rocuronium in the subgroup given 1150 nmol · kg^−1 Org 25969 once all twitches had disappeared
[7] = 1× ED90 rocuronium i.v., spontaneous recovery, group 1
[8] = 1× ED90 rocuronium i.v., spontaneous recovery, group 2
[9] = 10× ED90 rocuronium i.v. bolus, group 1
[10] = 10× ED90 rocuronium i.v. bolus, group 2
[11] = 10× ED90 rocuronium, saline one minute later (group 1), time from injection of saline
[12] = 1× ED90 rocuronium, spontaneous recovery
[13] = 5× ED90 rocuronium, spontaneous recovery
[14] = 5× ED90 rocuronium, spontaneous recovery subgroup

In the case of `O=C(O)CCSC[C@H]1O[C@@H]2O[C@H]3[C@H](O)[C@@H](O)[C@@H](O[C@H]4[C@H](O)[C@@H](O)[C@@H](O[C@H]5[C@H](O)[C@@H](O)[C@@H](O[C@H]6[C@H](O)[C@@H](O)[C@@H](O[C@H]7[C@H](O)[C@@H](O)[C@@H](O[C@H]8[C@H](O)[C@@H](O)[C@@H](O[C@H]9[C@H](O)[C@@H](O)[C@@H](O[C@H]1[C@H](O)[C@H]2O)O[C@@H]9CSCCC(=O)O)O[C@@H]8CSCCC(=O)O)O[C@@H]7CSCCC(=O)O)O[C@@H]6CSCCC(=O)O)O[C@@H]5CSCCC(=O)O)O[C@@H]4CSCCC(=O)O)O[C@@H]3CSCCC(=O)O` [Org 25969, 6-per-deoxy-6-per-(2-carboxyethyl)thio-γ-cyclodextrin], the “Time to TOF ratio 0.9” value ([1]; Org 25969 0.1 mg · kg^−1 i.v. bolus 3 minutes after 0.6 mg·kg^−1 rocuronium bromide, individual volunteer) is reported as 43 min, the “Time to TOF ratio 0.9” value ([1]; Org 25969 0.5 mg · kg^−1 i.v. bolus 3 minutes after 0.6 mg·kg^−1 rocuronium bromide, individual volunteer) is reported as 71 min and the “Time to TOF ratio 0.9” value ([1]; Org 25969 1.0 mg · kg^−1 i.v. bolus 3 minutes after 0.6 mg·kg^−1 rocuronium bromide, individual volunteers) is reported as 23 min and 31 min. For the same compound, the “Time to TOF ratio 0.9” value ([1]; Org 25969 2.0 mg · kg^−1 i.v. bolus 3 minutes after 0.6 mg·kg^−1 rocuronium bromide, individual volunteers) was 13 min and 17 min, the “Time to TOF ratio 0.9” value ([1]; Org 25969 4.0 mg · kg^−1 i.v. bolus 3 minutes after 0.6 mg·kg^−1 rocuronium bromide, individual volunteers) was 2.5 min and 3.2 min and the “Time to TOF ratio 0.9” value ([1]; Org 25969 8.0 mg · kg^−1 i.v. bolus 3 minutes after 0.6 mg·kg^−1 rocuronium bromide, individual volunteers) was ≤ 2 min and 1.0 min and 1.2 min. The re-curarisation ([1]; human, in vivo) was “no signs of re-curarisation”, the 25-75% recovery index ([2]; 10× ED90 rocuronium, 2300 nmol · kg^−1 Org 25969 i.v. one minute later (group 2)) was 1.3 min and 1.3 ± 0.4 min and the “time to 25% recovery” value [2, 4] was 3.7 ± 0.4 min. For the same compound, the “time to 90% recovery” value [2, 4] was 8.5 min and 8.5 ± 2.2 min, the “effectiveness against rocuronium compared with vecuronium (in words)” value ([3]; 1150 nmol·kg^−1 Org 25969, 5×ED90 of either blocker) was “more effective against a 5×ED90 dose of rocuronium” and the “reversal of rocuronium-induced neuromuscular block (in words)” value ([3]; 1150 nmol·kg^−1 Org 25969 i.v. after 5×ED90 rocuronium) was “rapid reversal”. For the same compound, the “0.50-0.90 TOF ratio interval” value [3, 5] was 4.0 ± 0.9 min, the 25-75% recovery index [3, 5] was 3.1 ± 0.8 min and the “time to 25% recovery of T1” value [3, 5] was 3.8 ± 0.7 min. For the same compound, the “time to 90% recovery of T1” value [3, 5] was 9.5 ± 1.9 min, the “time to TOF ratio 0.90” value [3, 5] was 7.9 ± 1.8 min and the block [3, 6] was 100.0 ± 0.0%. The onset time [3, 6] was 0.5 ± 0.1 min.

`C=CC[N+]1([C@H]2C[C@H]3[C@@H]4CC[C@H]5C[C@H](O)[C@@H](N6CCOCC6)C[C@]5(C)[C@H]4CC[C@]3(C)[C@H]2OC(C)=O)CCCC1` [rocuronium, rocuronium bromide] was tested, and the “Time to TOF ratio 0.9” value ([1]; 0.6 mg·kg^−1 rocuronium bromide i.v., placebo at 3 minutes, time from placebo, n = 10) was 35 to 69 min, the 25-75% recovery index [2, 7] was 3.5 ± 0.4 min and the max recovery [2, 7] was 101.1 ± 1.3%. The “max recovery after (time)” value [2, 7] was 15.1 ± 2.1 min, the “time to 25% recovery” value [2, 7] was 5.1 ± 0.7 min and the “time to 90% recovery” value [2, 7] was 10.7 ± 1.5 min. The 25-75% recovery index [2, 8] was 2.3 ± .5 min, the max recovery [2, 8] was 101.4 ± 2.8% and the “max recovery after (time)” value [2, 8] was 12.5 ± 1.7 min. For the same compound, the “time to 25% recovery” value [2, 8] was 3.8 ± 0.5 min, the “time to 90% recovery” value [2, 8] was 8.7 ± 1.4 min and the onset time ([2]; 1× ED90 rocuronium i.v., group 1) was 2.6 ± 0.3 min. The max block ([2]; 1× ED90 rocuronium i.v., group 1, Mean ± SEM, n = 6) was 89.7 ± 2.4%, the onset time ([2]; 1× ED90 rocuronium i.v., group 2) was 2.1 ± 0.3 min and the max block ([2]; 1× ED90 rocuronium i.v., group 2, Mean ± SEM, n = 6) was 91.0 ± 2.5%. It also gave a max block [2, 9] of 100.0 ± 0.0%, an onset time [2, 9] of 2.0 ± 0.8 min and a max block [2, 10] of 100.0 ± 0.0%. For the same compound, the onset time [2, 10] was 1.7 ± 0.5 min, the 25-75% recovery index ([2]; 10× ED90 rocuronium, saline one minute later (group 1)) was 15.9 min and 15.9 ± 4.0 min and the “time to 25% recovery” value [2, 11] was 47.5 ± 7.0 min. For the same compound, the “time to 90% recovery” value [2, 11] was 78.3 min and 78.3 ± 15.2 min, the “1× ED90 dose” value ([2]; group 1, Mean ± SEM, n = 6) was 178 ± 22 nmol/kg and the “1× ED90 dose” value ([2]; group 2, Mean ± SEM, n = 6) was 169 ± 15 nmol/kg. For the same compound, the onset time ([3]; 1× ED90 rocuronium) was 1.2 ± 0.0 min, the “0.50-0.90 TOF ratio interval” value [3, 12] was 2.6 ± 0.2 min and the 25-75% recovery index [3, 12] was 3.3 ± 0.4 min. For the same compound, the “time to 25% recovery of T1” value [3, 12] was 4.5 ± 0.6 min, the “time to 90% recovery of T1” value [3, 12] was 9.6 ± 0.9 min and the “time to TOF ratio 0.90” value [3, 12] was 8.4 ± 0.9 min. For the same compound, the block ([3]; 1× ED90 rocuronium, Mean ± SEM, n = 4) was 93.3 ± 1.9%, the “0.50-0.90 TOF ratio interval” value [3, 13] was 6.9 ± 0.8 min and the 25-75% recovery index [3, 13] was 6.0 ± 0.6 min. For the same compound, the “time to 25% recovery of T1” value [3, 13] was 18.5 ± 2.1 min, the “time to 90% recovery of T1” value [3, 13] was 27.7 ± 3.2 min and the “time to TOF ratio 0.90” value [3, 13] was 28.2 ± 3.4 min. It also gave a block [3, 14] of 100.0 ± 0.0% and an onset time [3, 14] of 0.7 ± 0.2 min.
